Test results reported in patent US11999782B2, “Therapeutic agents for the treatment of diseases associated with undesired cell proliferation” (Fundació Privada Institutció Catalana de Recerca I Estudis …, priority 2009, dated 2024).

Columns and labels:
[1] = system: STAT3 phosphorylation (JAK-STAT pathway); assay: p-STAT3 Western blotting in GBM1 neurospheres; type: cell-based, human; details: for phosphorylation of STAT3: 20 ng/ml LIF (time course) or 100 pM TGFβ1 for 4 hours
Protocol: FIG. 5. TGFβ induces the LIF-JAK-STAT pathway in GEM neurospheres derived from patients. (A) The levels of p-STAT3 and STAT3 were determined by means of Western blotting of neurospheres of the sample of GBM1 treated with 20 ng/ml LIF for the indicated time periods. (B) The neurospheres of the sample of GBM1 were treated with 20 ng/ml LIF and/or 0.5 pM P6 for 15 minutes and the levels of total p-STAT3 and STAT3 were determined by means of Western blotting. (C) The neurospheres of the sample of GBM1 were treated with 100 pM TGFβ1 or the 2 pM TβRI inhibitor for 4 hours in the absence of EFG and FGF and the levels of p-STAT3, STAT3, p-Smad2, Smad2 and α-tubulin were determined by means of Western blotting. (D) the neurospheres of the sample of GBM1 were treated with 100 pM TGFβ1, 0.5 μM P6 or the blocking antibody against LIF for 4 hours in the absence of EGF and FGF and the levels of total p-STAT3 and STAT3 were determined by means of Western blotting.
Genomic DNA of U373MG was used to amplify the −634/+32 region of the human LIF promoter which was cloned into the pGL2-basic luciferase vector. The deletion constructs (−267/+32), and (−73/+32) were generated by means of digestion of the construct (−634/+32). Two point mutations were introduced in positions −183 bp and −184 bp in the construct (−267/+32) to interrupt the Smad binding element (SBE) and generate the construct (−267/+32) mutSBE. TGFβ1, TGFβ2, TGFβ3 (R&D Systems), TβRI inhibitor (SB431542, Tocris), LIF (Chemicon), the neutralizing antibodies against LIF (R&D), JAK inhibitor (tetracyclic pyridone 6 (P6) Calbiochem), the assembly of SMART siRNAs targeted to Smad2, Smad3 and Smad4 (Dharmacon), and the control siRNA siGlo (Dharmacon) were used at the indicated concentrations. The antibodies specific against p-Smad2, Smad2, p-STAT3 (p-Tyr705) and total STAT3 (Cell Signalling) and against Smad2, Smad3 and Smad4 (Hata et al., (2000) Cell 100, 229-240) were used for Western blotting.
In order to distinguish whether the LIF signaling pathway is functional in GEM neurospheres, the neurospheres were treated with recombinant LIF and the levels of phosphorylation of the downstream substrate of the LIF receptor complex, STAT3, were determined. […] Furthermore, the induction of p-STAT3 was prevented by the presence of a pharmacological JAK-specific, tetracyclic pyridone 6 (P6) (Pedranzini et al., 2006, Cancer Res, 66: 9714-9721; Thompson et al., 2002, Bioorg Med Chem Lett, 12:1219-1223) (FIG. 5B). […] It was decided to assess whether LIP was mediating the induction of p-STAT3 by TGFβ. For this purpose, a neutralizing antibody against LIF was used to specifically block the effect of secreted LIP on cells treated with TGFβ. The presence of the neutralizing antibody of LIP decreased the induction of p-STAT3 by TGFβ. Furthermore, the levels of p-STAT3 in cells treated with TGFβ were repressed by means of the treatment with P6 (FIG. 5D).

[2] = system: GICs (glioma initiating cells) / GBM neurospheres; assay: Self-renewal assay of GBM neurospheres (GICs derived from patients); type: cell-based, human; details: for number of newly formed neurospheres / total number of cells: GBM1, GBM2, GBM3 neurosphere cells, 7 days in the absence of growth factors, 100 pM TGFβ1 or 20 ng/ml LIF
Protocol: FIG. 1. Effect of TGFβ on the self-renewal of GIC derived from patients. (A) Representative images of PCTCs and neurospheres of GBM generated from samples of 3 different patients with GBM (GBM1, GBM2, GBM3). (B) Musashi-1 (Msi-1), Sox2, Nestin and β-actin were determined by means of RT-PCR analysis of PCTCs and neurospheres of 3 samples of human GBM. (C) 100,000 neurosphere (nsph.) or PCTC cells obtained from samples of GBM1, GBM2 and GBM3 tumors were intracranially inoculated in three Balbc nu/nu mice in each case. Magnetic resonance imaging (MRI) studies were performed on days 30-40 in each mouse. The images represent an example of mice inoculated with neurosphere or PCTC cells obtained from GBM1. The mice were weighed twice a week. The graph represents mice inoculated with cells derived from GBM1. (D and E) Neurosphere cells of the indicated GBMs were incubated in the absence of growth factors with 100 pM TGFβ1 and/or 2 μM TβRI inhibitor for 7 days and the number of newly formed neurospheres (D) and the total number of cells (E) were determined. (F) Representative images of GBM1 neurospheres treated as indicated in D and E.
FIG. 6. LIF mediates the increase of self-renewal of GIC by TGFβ. (A, B) GBM1, GBM2 and GBM3 neurosphere cells were treated with 100 pM TGFβ1, 20 ng/ml LIF and/or anti-LIF neutralizing antibody and 0.5 pM P6 in the absence of EGF and FGF and the number of newly formed neurospheres (A) or the total number of cells (B) was determined. (C) Representative images of GBM1 neurospheres treated as indicated in A and B.
The self-renewal of the neurospheres was evaluated by seeding an identical number of cells at a very low density in wells of a 96-well plate. The cells were treated, in the absence of growth factors, with the indicated compounds and the total number of new neurospheres formed after 7 days in culture was counted (Lee et al. (2008) Cancer Cell 13, 69-80; Reynolds and Weiss, (1996) Dev Biol 175, 1-13; Seaberg and van der Kooy, (2002) J Neurosci 22, 1784-1793).
It was decided to evaluate the effect of TGFβ on the capacity for self-renewal of GICs following a well described protocol based on the capacity of GICs to generate neurospheres (Reynolds and Weiss, 1996, Dev Biol. 175:1-13; Seaberg and van der Kooy, 2002, J Neurosci 22:1784-1793). The neurospheres derived from patients were disassociated into individual cells, treated with TGFβ or left untreated for 7 days in the absence of growth factors and the newly formed neurospheres and the total number of cells were counted. Following this protocol, the effect of TGFβ on the capacity for self-renewal of the GICs derived from three different patients was evaluated. […] These effects were blocked when an TGFβ I receptor inhibitor (TβRI) was added at the same time as TGFβ.
It was decided to assess whether LIF and JAK-STAT pathway mediated the increase of self-renewal of GICs by TGFβ. For this purpose, the neutralizing antibody against LIP and P6 was used to specifically block the effect of the secreted LIP on cells treated with TGFβ. The neurospheres were disassociated into individual cells and were treated with TGFβ, recombinant LIF, anti-LIF antibody and/or P6. The newly formed neurospheres and the total number of cells were counted. […] The treatment with the neutralizing antibody of LIP decreased the induction of the self-renewal of GICs by TGFβ.

Compound	effect on the induction of p-STAT3 by TGFβ ([1]; 100 pM TGFβ1, 4 hours, absence of EGF and FGF, 2 pM TβRI inhibitor, 0.5 μM P6 or blocking antibody against LIF)	effect of the isolated inhibitor on number of neurospheres and total number of cells ([2]; 2 μM TβRI inhibitor without TGFβ, 7 days, absence of growth factors)	effect on the induction of self-renewal of GICs by TGFβ (number of neurospheres, total number of cells) ([2]; added with 100 pM TGFβ1, 2 μM TβRI inhibitor, anti-LIF neutralizing antibody or 0.5 pM P6, absence of EGF and FGF)	phosphorylation of STAT3 [1]	number of newly formed neurospheres [2]	total number of cells [2]
NC(=O)c1ccc(-c2nc(-c3ccc4c(c3)OCO4)c(-c3ccccn3)[nH]2)cc1 [TβRI inhibitor, SB431542, reference compound]	prevented that effect	no significant effect	blocked	–	–	–
LIF: recombinant leukemia inhibitory factor, an IL-6 type cytokine (Chemicon)	–	–	–	induced a quick phosphorylation of STAT3	increased	increased
TGFβ: TGFβ1 (R&D Systems), used at 100 pM according to the figure legends	–	–	–	induced the phosphorylation of STAT3	significantly increased	increased
